We go through two compounds from PubChem BioAssay (NCI).

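Five concentrations, 48 hours, 96-well plates. GI50: concentration for 50% inhibition of growth. TGI: total growth inhibition.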 Where only a bound is given, the exact number is not on record here.

The GI50 is the concentration that inhibits growth by half. For orientation: TGI means the concentration giving total growth inhibition. A high value points to lower sensitivity of the cells.

Test systems include SNB-19 CNS; MDA-MB-435; SF-295 CNS; SNB-75 CNS; EKVX NSCLC; UO-31 renal; HCC-2998 colon; SW-620 colon; SR leukemia; UACC-62 melanoma.
Holding throughout (test): DTP human tumour cell line panel, 48 h

Take `O=C(N/N=C/c1cc(Cl)ccc1O)c1ccccc1Nc1ccnc(C(F)(F)F)c1`: the GI50 is 0.89 µM in the assay with SNB-19 CNS; 1.16 µM with MDA-MB-435; 0.613 µM in the assay with SF-295 CNS; 0.703 µM in the assay on SNB-75 CNS; 0.25 µM in the assay on EKVX NSCLC; 0.346 µM with UO-31 renal. The GI50 in the assay with HCC-2998 colon is 0.476 µM; in the assay on SW-620 colon, 0.612 µM; in the assay with SR leukemia it was 0.246 µM; with UACC-62 melanoma, 0.331 µM. For the same compound, the TGI amounted to 24.3 µM in the assay on SNB-19 CNS; 16.9 µM in the assay on MDA-MB-435; 13.2 µM with SF-295 CNS; 20.8 µM in the assay on SNB-75 CNS; 4.86 µM in the assay on EKVX NSCLC; 7.73 µM in the assay with UO-31 renal. In addition, the TGI was 17.1 µM with HCC-2998 colon, 12.7 µM with SW-620 colon, 1.76 µM in the assay with SR leukemia and 1.75 µM with UACC-62 melanoma.
As for `O=C1C(Cl)=C(Cl)C(=O)N1c1ccc(F)cc1`, the TGI in the assay with SNB-19 CNS is greater than 73.2 µM; with MDA-MB-435, 34.9 µM; in the assay with SF-295 CNS it was greater than 100 µM; in the assay with SNB-75 CNS it was 20.8 µM; in the assay on EKVX NSCLC, 40.6 µM; with UO-31 renal it was 48.8 µM. Moreover, the TGI with HCC-2998 colon is 48.1 µM; with SW-620 colon it was 34.1 µM; with SR leukemia it was 47.2 µM; with UACC-62 melanoma, 31.7 µM.
